{"source": "ChEMBL document CHEMBL5696442", "about": "“Discovery of type II inhibitors of TGFβ-activated kinase 1 (TAK1) and mitogen-activated protein kinase kinase kinase kinase 2 (MAP4K2)” (J Med Chem, 2015)", "key": {"[1]": {"molecular_target": "Serine/threonine-protein kinase Nek6 (Homo sapiens) (UniProt Q9HC98)", "sequence (Q9HC98 whole entry)": "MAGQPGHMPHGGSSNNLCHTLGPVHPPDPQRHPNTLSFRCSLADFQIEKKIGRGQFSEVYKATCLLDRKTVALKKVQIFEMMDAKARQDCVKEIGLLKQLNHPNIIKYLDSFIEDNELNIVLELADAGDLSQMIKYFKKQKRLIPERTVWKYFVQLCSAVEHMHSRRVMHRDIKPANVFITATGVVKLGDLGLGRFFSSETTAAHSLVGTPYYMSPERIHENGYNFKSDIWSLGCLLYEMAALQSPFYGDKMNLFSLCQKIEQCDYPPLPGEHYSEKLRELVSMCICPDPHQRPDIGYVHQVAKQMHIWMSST", "assay": "Inhibition of NEK6 Lys2 labeling site harbouring VMHRDIKPANVFITATGVVK in human Huh-7 cell lysate at 1 uM by KiNativ Profiling analysis relative to control", "format": "subcellular"}, "[2]": {"molecular_target": "Ribosomal protein S6 kinase alpha-4 (Homo sapiens) (UniProt O75676)", "sequence (O75676 whole entry, looked up, the tested form may be a part)": "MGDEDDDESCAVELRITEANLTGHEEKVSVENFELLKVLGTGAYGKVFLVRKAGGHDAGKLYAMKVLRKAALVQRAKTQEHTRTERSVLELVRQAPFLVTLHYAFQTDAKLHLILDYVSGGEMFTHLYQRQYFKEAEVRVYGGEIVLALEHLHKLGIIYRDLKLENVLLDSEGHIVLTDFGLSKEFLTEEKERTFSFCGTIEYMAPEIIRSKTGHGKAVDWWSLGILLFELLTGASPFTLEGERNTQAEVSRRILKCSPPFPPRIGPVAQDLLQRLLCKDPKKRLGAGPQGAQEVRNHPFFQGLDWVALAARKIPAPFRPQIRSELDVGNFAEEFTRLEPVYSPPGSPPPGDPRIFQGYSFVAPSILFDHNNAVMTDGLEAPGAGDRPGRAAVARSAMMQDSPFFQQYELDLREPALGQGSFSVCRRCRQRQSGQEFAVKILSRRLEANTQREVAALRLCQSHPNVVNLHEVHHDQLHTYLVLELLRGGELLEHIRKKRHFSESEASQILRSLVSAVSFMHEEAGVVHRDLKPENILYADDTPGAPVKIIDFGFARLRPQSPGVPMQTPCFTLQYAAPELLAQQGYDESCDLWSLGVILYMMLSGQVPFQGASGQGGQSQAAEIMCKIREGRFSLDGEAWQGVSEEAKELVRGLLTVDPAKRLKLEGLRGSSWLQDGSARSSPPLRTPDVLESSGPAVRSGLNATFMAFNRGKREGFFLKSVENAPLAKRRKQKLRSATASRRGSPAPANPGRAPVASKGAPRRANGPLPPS", "assay": "Inhibition of MSK2 domain1 ATP labeling site in human Huh-7 cell lysate at 1 uM by KiNativ Profiling analysis relative to control", "format": "subcellular"}, "[3]": {"molecular_target": "Serine/threonine-protein kinase MARK2 (Homo sapiens) (UniProt Q7KZI7)", "sequence (Q7KZI7 whole entry)": "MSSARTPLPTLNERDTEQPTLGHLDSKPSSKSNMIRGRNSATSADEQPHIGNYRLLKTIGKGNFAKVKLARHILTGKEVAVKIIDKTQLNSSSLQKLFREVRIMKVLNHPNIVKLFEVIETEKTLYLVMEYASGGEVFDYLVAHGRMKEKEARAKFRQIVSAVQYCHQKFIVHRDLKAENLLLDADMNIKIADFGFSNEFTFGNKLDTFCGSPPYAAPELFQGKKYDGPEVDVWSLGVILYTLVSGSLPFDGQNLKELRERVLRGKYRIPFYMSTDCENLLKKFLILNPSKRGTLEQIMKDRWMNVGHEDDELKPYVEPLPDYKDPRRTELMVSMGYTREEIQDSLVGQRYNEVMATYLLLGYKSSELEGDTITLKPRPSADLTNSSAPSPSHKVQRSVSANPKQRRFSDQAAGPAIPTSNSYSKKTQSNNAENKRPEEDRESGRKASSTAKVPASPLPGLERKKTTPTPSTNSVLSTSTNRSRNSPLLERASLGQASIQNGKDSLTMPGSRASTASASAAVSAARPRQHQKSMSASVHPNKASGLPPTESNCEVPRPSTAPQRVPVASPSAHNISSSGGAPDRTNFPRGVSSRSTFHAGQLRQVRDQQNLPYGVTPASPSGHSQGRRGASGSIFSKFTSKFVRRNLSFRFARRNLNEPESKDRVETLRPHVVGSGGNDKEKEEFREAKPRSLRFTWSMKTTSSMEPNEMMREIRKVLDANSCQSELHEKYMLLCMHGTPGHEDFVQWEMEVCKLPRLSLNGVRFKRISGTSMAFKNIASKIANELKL", "assay": "Inhibition of MARK2 Lys2 labeling site harbouring DLKAENLLLDADMNIK in human Huh-7 cell lysate at 1 uM by KiNativ Profiling analysis relative to control", "format": "subcellular"}, "[4]": {"assay": "Inhibition of p70S6K Lys2 labeling site in human A-375 cells at 0.5 uM by KiNativ Profiling analysis relative to control", "conditions": "condition cancer"}, "[5]": {"molecular_target": "Cyclin-dependent kinase-like 1 (Homo sapiens) (UniProt Q00532)", "sequence (Q00532 whole entry)": "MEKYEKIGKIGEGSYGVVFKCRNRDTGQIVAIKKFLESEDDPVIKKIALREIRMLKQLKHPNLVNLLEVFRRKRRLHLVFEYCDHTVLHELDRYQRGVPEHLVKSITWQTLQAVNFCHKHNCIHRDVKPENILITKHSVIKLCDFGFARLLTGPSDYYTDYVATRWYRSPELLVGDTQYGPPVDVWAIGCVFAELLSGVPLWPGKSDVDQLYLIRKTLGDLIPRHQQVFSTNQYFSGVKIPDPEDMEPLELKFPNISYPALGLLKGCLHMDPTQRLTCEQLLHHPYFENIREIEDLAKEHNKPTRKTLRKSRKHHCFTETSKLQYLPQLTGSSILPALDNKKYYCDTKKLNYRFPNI", "assay": "Inhibition of CDKL1 (unknown origin) at 1 uM by Ambit Kinomescan binding assay relative to control; values are per cent of control"}, "[6]": {"molecular_target": "RAC-gamma serine/threonine-protein kinase (Homo sapiens) (UniProt Q9Y243)", "assay": "Inhibition of AKT3 ATP Loop labeling site in human A-375 cells at 5 uM by KiNativ Profiling analysis relative to control", "format": "cell-based"}, "[7]": {"molecular_target": "Atypical kinase COQ8A, mitochondrial (Homo sapiens) (UniProt Q8NI60)", "sequence (Q8NI60 163-647 limits assumed)": "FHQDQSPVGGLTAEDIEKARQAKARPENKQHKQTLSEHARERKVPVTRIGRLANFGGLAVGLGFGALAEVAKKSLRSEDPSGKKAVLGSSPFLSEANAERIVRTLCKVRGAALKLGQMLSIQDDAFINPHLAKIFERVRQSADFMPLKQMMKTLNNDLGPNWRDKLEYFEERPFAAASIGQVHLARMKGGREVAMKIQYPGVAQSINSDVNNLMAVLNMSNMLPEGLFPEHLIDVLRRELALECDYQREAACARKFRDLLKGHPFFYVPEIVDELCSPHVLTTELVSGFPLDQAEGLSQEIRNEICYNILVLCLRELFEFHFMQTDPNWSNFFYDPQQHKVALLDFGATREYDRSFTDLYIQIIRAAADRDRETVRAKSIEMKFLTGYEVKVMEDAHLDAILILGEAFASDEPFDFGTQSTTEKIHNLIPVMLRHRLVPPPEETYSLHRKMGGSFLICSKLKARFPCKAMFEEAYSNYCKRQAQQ", "assay": "Inhibition of ADCK3 (unknown origin) at 1 uM by Ambit Kinomescan binding assay relative to control"}, "[8]": {"molecular_target": "5'-AMP-activated protein kinase catalytic subunit alpha-2 (Homo sapiens) (UniProt P54646)", "assay": "Inhibition of AMPK-alpha2 (unknown origin) at 1 uM by Ambit Kinomescan binding assay relative to control"}, "[9]": {"molecular_target": "Cyclin-dependent kinase 18 (Homo sapiens) (UniProt Q07002)", "assay": "Inhibition of PCTAIRE3 Lys1 labeling site harbouring SKLTENLVALKEIRLEHEEGAPCTAIR in human A-375 cells at 0.05 uM by KiNativ Profiling analysis relative to control", "format": "cell-based"}, "[10]": {"molecular_target": "Tyrosine-protein kinase JAK2 (Homo sapiens) (UniProt O60674)", "sequence (O60674 whole entry, the tested form may be a part)": "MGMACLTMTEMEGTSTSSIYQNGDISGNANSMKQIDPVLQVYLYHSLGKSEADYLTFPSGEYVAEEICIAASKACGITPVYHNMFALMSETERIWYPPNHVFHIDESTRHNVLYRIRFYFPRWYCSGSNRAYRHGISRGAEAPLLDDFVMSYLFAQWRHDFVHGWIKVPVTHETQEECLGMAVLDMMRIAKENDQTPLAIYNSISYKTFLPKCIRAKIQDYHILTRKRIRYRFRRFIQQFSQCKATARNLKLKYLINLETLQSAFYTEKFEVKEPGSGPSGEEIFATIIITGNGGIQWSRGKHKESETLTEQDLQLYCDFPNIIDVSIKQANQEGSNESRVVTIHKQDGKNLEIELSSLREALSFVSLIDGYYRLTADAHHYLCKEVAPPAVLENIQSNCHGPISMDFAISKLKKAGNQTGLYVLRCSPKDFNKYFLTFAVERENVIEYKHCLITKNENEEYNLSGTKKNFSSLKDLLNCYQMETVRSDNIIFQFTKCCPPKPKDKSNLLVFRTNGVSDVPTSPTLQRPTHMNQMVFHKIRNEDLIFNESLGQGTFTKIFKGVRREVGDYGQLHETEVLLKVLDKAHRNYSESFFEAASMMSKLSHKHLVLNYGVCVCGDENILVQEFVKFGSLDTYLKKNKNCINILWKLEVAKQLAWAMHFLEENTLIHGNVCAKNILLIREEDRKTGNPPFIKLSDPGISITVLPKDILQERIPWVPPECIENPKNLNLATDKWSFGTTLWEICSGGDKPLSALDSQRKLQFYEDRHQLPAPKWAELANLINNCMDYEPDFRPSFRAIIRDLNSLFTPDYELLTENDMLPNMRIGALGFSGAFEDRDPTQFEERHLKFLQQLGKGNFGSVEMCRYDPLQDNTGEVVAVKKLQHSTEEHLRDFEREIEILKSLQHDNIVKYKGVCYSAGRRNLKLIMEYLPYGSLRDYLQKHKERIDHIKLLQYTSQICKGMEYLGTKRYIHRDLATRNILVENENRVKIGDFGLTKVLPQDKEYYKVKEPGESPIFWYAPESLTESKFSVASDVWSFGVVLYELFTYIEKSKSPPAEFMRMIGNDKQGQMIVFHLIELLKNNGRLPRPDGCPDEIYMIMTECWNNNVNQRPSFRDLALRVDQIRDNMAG", "assay": "Inhibition of JAK2 JH1catalytic domain (unknown origin) at 1 uM by Ambit Kinomescan binding assay relative to control"}, "[11]": {"molecular_target": "Non-receptor tyrosine-protein kinase TYK2 (Homo sapiens) (UniProt P29597)", "sequence (P29597 whole entry, the tested form may be a part)": "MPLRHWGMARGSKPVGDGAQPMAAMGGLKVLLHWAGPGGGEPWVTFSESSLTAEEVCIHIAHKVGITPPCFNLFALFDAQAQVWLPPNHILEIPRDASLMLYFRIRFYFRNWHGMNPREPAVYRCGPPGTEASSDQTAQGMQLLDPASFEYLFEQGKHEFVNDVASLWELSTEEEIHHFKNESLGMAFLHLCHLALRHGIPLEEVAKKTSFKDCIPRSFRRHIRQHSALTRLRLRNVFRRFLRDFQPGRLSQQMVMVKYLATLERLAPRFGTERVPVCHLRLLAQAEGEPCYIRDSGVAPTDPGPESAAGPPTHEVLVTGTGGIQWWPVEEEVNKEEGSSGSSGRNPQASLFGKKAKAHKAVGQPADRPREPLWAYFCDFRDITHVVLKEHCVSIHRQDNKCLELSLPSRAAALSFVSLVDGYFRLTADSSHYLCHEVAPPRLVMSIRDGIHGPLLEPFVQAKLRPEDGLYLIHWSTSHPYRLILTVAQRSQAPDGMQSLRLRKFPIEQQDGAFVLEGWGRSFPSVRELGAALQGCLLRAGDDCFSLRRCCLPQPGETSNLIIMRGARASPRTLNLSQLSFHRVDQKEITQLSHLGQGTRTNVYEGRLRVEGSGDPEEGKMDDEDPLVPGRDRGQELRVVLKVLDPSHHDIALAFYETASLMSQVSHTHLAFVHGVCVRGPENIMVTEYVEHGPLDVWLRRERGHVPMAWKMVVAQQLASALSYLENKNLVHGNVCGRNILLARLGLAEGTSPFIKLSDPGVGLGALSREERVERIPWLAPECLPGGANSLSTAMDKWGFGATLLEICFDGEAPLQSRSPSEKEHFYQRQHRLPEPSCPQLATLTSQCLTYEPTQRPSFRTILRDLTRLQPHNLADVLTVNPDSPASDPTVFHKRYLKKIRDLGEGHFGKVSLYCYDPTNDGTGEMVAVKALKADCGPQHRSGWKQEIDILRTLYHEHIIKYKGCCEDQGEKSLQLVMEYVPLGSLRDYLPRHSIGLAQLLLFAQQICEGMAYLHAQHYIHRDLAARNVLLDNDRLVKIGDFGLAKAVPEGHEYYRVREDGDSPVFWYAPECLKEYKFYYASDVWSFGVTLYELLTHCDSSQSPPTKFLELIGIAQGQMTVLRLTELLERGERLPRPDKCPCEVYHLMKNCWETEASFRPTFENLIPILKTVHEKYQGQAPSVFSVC", "assay": "Inhibition of TYK2 JH1 catalytic domain (unknown origin) at 10 uM by Ambit Kinomescan binding assay relative to control; values are per cent of control"}, "[12]": {"molecular_target": "T1, Inhibitor of nuclear factor kappa-B kinase subunit epsilon (Homo sapiens) (UniProt Q14164)", "T1 sequence (whole entry)": "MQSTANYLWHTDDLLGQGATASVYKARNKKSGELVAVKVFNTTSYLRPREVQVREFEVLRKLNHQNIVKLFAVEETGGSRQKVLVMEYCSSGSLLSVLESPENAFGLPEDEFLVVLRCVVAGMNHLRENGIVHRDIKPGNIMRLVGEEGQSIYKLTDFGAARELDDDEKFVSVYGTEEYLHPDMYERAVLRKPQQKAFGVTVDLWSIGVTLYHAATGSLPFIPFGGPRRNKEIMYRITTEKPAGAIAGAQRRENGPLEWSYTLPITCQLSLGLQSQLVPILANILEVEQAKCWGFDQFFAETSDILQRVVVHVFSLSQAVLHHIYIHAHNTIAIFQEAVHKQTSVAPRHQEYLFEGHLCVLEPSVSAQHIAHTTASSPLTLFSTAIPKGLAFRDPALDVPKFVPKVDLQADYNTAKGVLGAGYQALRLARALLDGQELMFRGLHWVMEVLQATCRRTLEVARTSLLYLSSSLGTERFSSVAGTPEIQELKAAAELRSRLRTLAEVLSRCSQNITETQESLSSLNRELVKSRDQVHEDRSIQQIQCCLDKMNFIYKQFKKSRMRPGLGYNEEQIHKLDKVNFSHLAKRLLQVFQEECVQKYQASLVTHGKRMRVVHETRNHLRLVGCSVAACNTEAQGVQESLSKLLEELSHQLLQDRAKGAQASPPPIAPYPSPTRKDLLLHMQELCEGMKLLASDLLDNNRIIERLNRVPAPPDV", "assay": "Inhibition of IKK-epsilon (unknown origin) at 10 uM by Ambit Kinomescan binding assay"}, "[13]": {"assay": "Inhibition of KHS1 Lys2 labeling site in human A-375 cells at 5 uM by KiNativ Profiling analysis relative to control", "conditions": "condition cancer"}, "[14]": {"molecular_target": "Bone morphogenetic protein receptor type-1B (Homo sapiens) (UniProt O00238)", "assay": "Inhibition of BMPR1B (unknown origin) at 10 uM by Ambit Kinomescan binding assay"}, "[15]": {"assay": "Inhibition of PKD1/2 K2 labeling site in human Huh-7 cells at 1 uM by KiNativ Profiling analysis relative to control", "conditions": "condition cancer"}, "[16]": {"molecular_target": "T2, Mitogen-activated protein kinase 12 (Homo sapiens) (UniProt P53778)", "T2 sequence (whole entry)": "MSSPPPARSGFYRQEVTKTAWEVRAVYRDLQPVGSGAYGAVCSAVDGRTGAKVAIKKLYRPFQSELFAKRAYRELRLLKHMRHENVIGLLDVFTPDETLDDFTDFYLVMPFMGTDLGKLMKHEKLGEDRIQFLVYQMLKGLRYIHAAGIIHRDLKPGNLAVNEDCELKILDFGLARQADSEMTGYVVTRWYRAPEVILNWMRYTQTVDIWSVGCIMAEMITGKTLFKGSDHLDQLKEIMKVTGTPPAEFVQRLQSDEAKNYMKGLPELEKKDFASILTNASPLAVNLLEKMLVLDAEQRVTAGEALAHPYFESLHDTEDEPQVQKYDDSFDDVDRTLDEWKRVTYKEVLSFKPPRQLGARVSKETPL", "assay": "Inhibition of p38gamma (unknown origin) at 10 uM by Ambit Kinomescan binding assay relative to control; values are per cent of control"}}, "note": "Calls of active or inactive are those of the source. The calls are words filed in the database; no cut-off is given here."}
{"smiles": "CNc1cc(Oc2cc(C(=O)Nc3cc(N4CCN(C)CC4)cc(C(F)(F)F)c3)ccc2C)ncn1", "values": [{"measurement": "inhibition", "setting": "[1]", "result": 19.4, "unit": "%"}, {"measurement": "inhibition", "setting": "[2]", "result": -8, "unit": "%"}, {"measurement": "inhibition", "setting": "[3]", "result": -4.1, "unit": "%"}]}
{"smiles": "CCN1CCN(Cc2ccc(NC(=O)c3ccc(C)c(/C=C/c4cnc5[nH]ccc5c4OC)c3)cc2C(F)(F)F)CC1", "values": [{"measurement": "inhibition at 0.5 µM", "setting": "[4]", "result": -32.9, "unit": "%"}, {"measurement": "residual activity", "setting": "[5]", "result": 100, "unit": "%"}, {"measurement": "inhibition", "setting": "[6]", "result": 13.3, "unit": "%"}, {"measurement": "inhibition", "setting": "[7]", "result": 100, "unit": "%"}, {"measurement": "inhibition", "setting": "[8]", "result": 61, "unit": "%"}, {"measurement": "inhibition", "setting": "[9]", "result": 2.7, "unit": "%"}, {"measurement": "inhibition", "setting": "[10]", "result": 32, "unit": "%"}]}
{"smiles": "CCN1CCN(Cc2ccc(NC(=O)c3ccc(C)c(Oc4ccnc5[nH]ccc45)c3)cc2C(F)(F)F)CC1", "values": [{"measurement": "residual activity", "setting": "[11]", "result": 0, "unit": "%"}, {"measurement": "inhibition", "setting": "[12]", "result": "inactive"}, {"measurement": "inhibition at 5 µM", "setting": "[13]", "result": 42.8, "unit": "%"}, {"measurement": "inhibition", "setting": "[14]", "result": "inactive"}, {"measurement": "inhibition at 1 µM", "setting": "[15]", "result": -9.2, "unit": "%"}, {"measurement": "percent of control", "setting": "[16]", "result": 0, "unit": "%"}]}
